The values below come from patent US10844091B2 (priority 2017, dated 2020).

Marks after values point to notes of the source that are not given here. Non-standard residues stand in square brackets, D forms with d.

The subject of assay [1] is rat models with Alzheimer's disease. Briefly: Extrapolation escape (EE) test, scopolamine-induced Alzheimer's disease model. In kind it is in vivo. The method, then:
White random-bred adult male rats weighing 200-240 g were used. Groups of 7 animals per group were formed. 1st group—control, 2nd—pathology, 3rd—comparator drug, 4th-6th—neuropeptides.
Scopolamine was administered i.p. to the animals in all groups except for the control at a 1 mg/kg dose daily, once a day for 27 days. From the 28th day on, the animals in groups 2 and 3 were administered the comparator drug and the claimed preparation respectively over the course of 10 days. The drugs were administered daily, once a day.
The tetrapeptides were administered i.n at a 0.1 mg/kg dose. The animals in the pathology group received 0.9% sodium chloride solution i.n. and i.p. as a placebo.
(§1) The OF and EE tests were conducted on the 1st day, PST—on the 2nd day, CPAR—on the 1st and 10th day post treatment with the preparations. […] The antiamnesic action (AA) in the CPAR test was calculated using Butler's formula [K. S. Radionova. […] After that, the animals were removed from the experiment by administering a narcotic, followed by decapitation. The brain was extracted and weighed, and the brain weight coefficient (BWC) was calculated. Immediately after extraction, the brain was frozen in liquid nitrogen and used in subsequent biochemical and histochemical studies. Glucose levels in whole arterial (common carotid artery) and venous (venous cerebral sinus) blood were determined by the glucose oxidase test, the difference in the arterial-venous glucose content was calculated (glucose consumption marker). The levels of average weight molecules—the toxic products of cell biodegradation damaged during the disease (nucleoside derivatives, peptoids, glucuronic acid salts, etc.) in the blood serum (AWM) were calculated [A. N. Kovalevsky. Notes on the screening method of determination average weight molecules/A. N. Kovalevsky, O. Ye. Nifantiev//Lab. Science. […] 35-39].

Assay [2] can be described thus: Brain weight coefficient (BWC) in rat models with Alzheimer's disease. In kind it is in vivo. The conditions noted are these: statistically insignificant; donepezil 1 mg/kg, tetrapeptide 0.1 mg/kg. The method, then: (§2) The drugs were administered daily, once a day.
as §1

In the next assay the test system is serotonin. The assay can be described thus: Serotonin level in the brain of rat models with Alzheimer's disease. In kind it is in vivo. The conditions noted are these: donepezil 1 mg/kg, tetrapeptide 0.1 mg/kg. The method, then: as §2
M. I. Prokhorova, Leningrad, pub.

Assay [3] relates to intact rats and animals with reserpine-induced depression. The assay can be described thus: Popsolt swim test, intact rats and animals with reserpine-induced depression. In kind it is in vivo, rat. The settings on record: for Number of immobilization episodes / Total duration of immobilization / Latent immobilization period: imipramine 15 mg/kg i.p., tetrapeptide (LYS) 0.02 mg/kg i.n. The procedure: The experiment was conducted on 16 white random-bred adult male rats weighing:
180-220 g. The antidepressant activity of tetrapeptide (LYS), a neuroprotector, at a 0.02 mg/kg dose intranasally (i.n.) was evaluated. […] The experiment was conducted in two stages. […] 25-30 min. prior to the start of the experiment, the animals were administered their respective drugs. The animals in the control group were administered 0.9% NaCl solution i.p. and i.n. in the volume equal to the volume of the medications. After that, the animals of all groups were placed in the open field (OF) for 3 min., and their locomotor (number of crossed squares), orientation, and exploratory (number of upright positions and explored openings) activity as well as their emotional reactions (fecal boluses, urination, grooming) were evaluated. The indicators of depression in the animals (latent immobilization period, the number of such instances, and their total duration) were evaluated in the Popsolt swim test (PST) over 6 min. In the next 2 days, all the medications were administered at the same dose once a day; the last administration—30 min before the depressogenic sympatholytics of reserpine. Reserpine was administered on the 3rd day (2nd stage of the experiment) at a 4 mg/kg dose i.p. (as a suspension stabilized with Tween-80). Animals in all 3 groups were evaluated 6-7 hr. later in the OF and PST.
Test results were statistically processed. When the data distribution was normal, the parametric Student's t-distribution test was applied, when it was absent, the non-parametric MannWhitney U-test was used. When processing the results in an alternative form (presence/absence of the indicator), Fisher's angular transformation φ was applied. Wilcoxon paired t-criterium test was used for the intra-group statistical evaluation of the changed in the animal test results prior and post simulated depression. The results were considered to be statistically significant when p<0.05.

The mark [4] stands for this setting: 3 min test, scopolamine 1 mg/kg i.p. 27 days, donepezil 1 mg/kg i.p. 10 days, peptide (LYS) 0.1 mg/kg i.n. 10 days.
Where [5] appears, read: R - reserpine-induced depression.
The mark [6] stands for this setting: reserpine-induced depression, p<0.05.

Take “acetyl-D-Lys-Lys-Arg-Arg-amide (Ac-[dK]KRR-NH2; SMILES CC(=O)N[C@H](CCCCN)C(=O)N[C@@H](CCCCN)C(=O)N[C@@H](CCCNC(=N)N)C(=O)N[C@@H](CCCNC(=N)N)C(N)=O) [tetrapeptide (LYS), peptide acetyl-X-ARG-ARG-amide, X = D- and L-amino acid residues of lysine]”: the “reduction of escape time compared to the pathology group” value in assay [1] (0.1 mg/kg i.n. 10 days, p<0.05) was 3.8 times. The “escape time difference versus donepezil” value in assay [1] (0.1 mg/kg i.n. vs donepezil 1 mg/kg, p<0.05) is recorded as 41.7%. Also, in assay [1] (setting [4]), the “% of animals succeeded” value is recorded as 100% and the Escape time was 11.00 ± 3.07*^ sec. In addition, in assay [2], the “reduction of the brain weight coefficient (BWC)” value turned out to be 14.3%. For the same substance, the “reduction of the serotonin level in the brain” value with serotonin was found to be 23.8%. Also, in assay [3] (I - intact animals), the “Number of immobilization episodes” value amounted to 1.2 ± 0.6 and the “Total duration of immobilization” value is 4.0 ± 2.7 s. Besides, the Latent immobilization period in assay [3] (I - intact animals, 6 min) came out at 214.6 ± 66.7 s. Also, in assay [3] (setting [5]), the Latent immobilization period was determined as 170.8 ± 34.1 s, the “Number of immobilization episodes” value was found to be 3.0 ± 0.38 and the “Total duration of immobilization” value turned out to be 7.8 ± 2.3 s. Further, in assay [3] (R vs I), the “Latent immobilization period, % change reserpine-induced depression vs. intact animals” value is “(−20.4)^ %”; the “Number of immobilization episodes, % change reserpine-induced depression vs. intact animals” value is “(+150.0%)”; the “Total duration of immobilization, % change reserpine-induced depression vs. intact animals” value was “(+95.0%)”. Further, in assay [3] (intact animals, p<0.05), the “increase of the latent immobilization period compared to the control” value was 3.5 times, the “reduction of the number of immobilization periods compared to the control” value was determined as 11.5 times and the “reduction of total duration of immobilization compared to the control” value was 16.1 times. For the same substance, in assay [3] (setting [6]), the “increase of the latent immobilization period compared to the control” value came out at 4.5 times, the “reduction of the number of immobilization episodes compared to the control” value came out at 2.6 times and the “reduction of total duration of immobilization compared to the control” value is on record as 3.6 times.
